Structures are written as SMILES. Like-named read-outs stand apart in the source and are kept apart here.

Consider two compounds from US20200054587A1, “METHODS AND MATERIALS FOR REDUCING SCARRING ASSOCIATED WITH ARTHROFIBROSIS OR TENDON INJURY” (Mayo Foundation for Medical Education and Research, priority 2018, published 2020).

Data set [1] has as its system adipose tissue-derived mesenchymal stem cells (aMSC). The experiment in a line: Live/dead cytotoxicity staining (Calcein AM / Ethidium Homdimer-1). The conditions noted are these: after initial exposure, absence of any dead-cell staining, FIG. 1B.
The subject of data set [2] is COL1A1, COL2A1 and COL5A1. The experiment in a line: qPCR of collagen genes in posterior capsule tissue, rabbit knee arthrofibrosis model. It counts as in vivo. Particulars: rabbit posterior capsule tissue at 24 weeks, FIG. 3A. As for the experimental part: (§1) All rabbits underwent luxation (hyperextension) and arthrodesis (fixation) of the operative knee. […] After eight weeks, the arthrodesis was reversed. Rabbits were allowed to roam free in individual spaces (1 m^2) for the entire 24 week duration. Angles of passive extension of operative and contralateral, non-operative limbs were measured at 8, 10, 16, and 24 weeks, using a validated dynamic load cell device. Rabbits were sacrificed at 24 weeks and samples of the posterior capsule were taking from the operative and contralateral, non-operative knee. Data from mRNA extraction and qPCR were obtained to analyze expression of alpha-1 collagen (COL1A1, COL2A1 and COL5A1) and alpha smooth muscle actin (ACTA2), all of which are involved in fibrosis.
On the technique in general: In qPCR the cycle at which signal appears reflects the starting amount.

The subject of the next data set is flexor tendon injury. The experiment in a line: In vivo turkey flexor tendon injury model. Particulars: 50 mg powder applied to repaired tendon, 6 weeks. The source says:
Flexor tendon injuries are common and pose a clinical challenge for functional restoration. Postoperative repair rupture and scar formation results in prolonged work disability for patients. […] Twelve male turkeys underwent surgical flexor tendon cut and repair. […] After sacrifice, digits were collected and analyzed for adhesion formation as well as healing at the macrolevel.

For a further data set, the system named is ACTA2. The data set is described as follows: qPCR of alpha smooth muscle actin gene in posterior capsule tissue, rabbit knee arthrofibrosis model. It counts as in vivo. The conditions noted are these: rabbit posterior capsule tissue at 24 weeks, FIG. 3B. As for the experimental part: as §1
The test system of a further data set is knee arthrofibrosis. The data set is described as follows: Rabbit knee arthrofibrosis model, passive range of motion. It counts as in vivo. The conditions noted are these: 50 mg in gel injected into the joint capsule during surgery. As for the experimental part: as §1
The conditions of data set [3]: cited from earlier work.

As to `N=C(N)c1ccc(OCCCCCOc2ccc(C(=N)N)cc2)cc1` [pentamidine, 4,4′-[pentane-1,5-diylbis(oxy)]dibenzenecarboximid-amide], the “cytotoxic effect (Ethidium Homdimer-1 staining)” value in data set [1] is reported as “no cytotoxic effect”. The “collagen (COL1A1, COL2A1 and COL5A1) expression vs control tissue” value in data set [2] is recorded as “decreased”. The “post-operative scar formation (gross anatomy) vs control” value with flexor tendon injury is “marked reduction”. Also, the “adhesion score, 0 (no adhesion) to 8 (very severe)” value in the data set with flexor tendon injury (all six treated turkeys, FIG. 4) is given as “significantly reduced”. Further, the “ACTA2 gene expression vs control tissue” value in the data set with ACTA2 is “decreased”. The “passive range of motion (ROM), pentamidine vs control rabbits” value is reported as “statistically significant difference” in the data set with knee arthrofibrosis (24 weeks, p=0.0082) and “statistically significant difference” with knee arthrofibrosis (eight weeks, p=0.0303).

Turning to `N=C(N)c1ccc(OCCCCCOc2ccc(C(=N)N)cc2)cc1` [Pentamidine isethionate, 4,4-[1,5-pentanediylbis(oxy)]bis-benzenecarboximidamid], the solubility result is reported as “insoluble” in data set [3] (acetone); “soluble” in data set [3] (alcohol); “insoluble” in data set [3] (chloroform); “insoluble” in data set [3] (ether); “soluble” in data set [3] (glycerin); “soluble” in data set [3] (water).
